Measured values as given in patent US20250295732A1, “COMPOSITIONS AND METHODS FOR ACTIVATING INNATE IMMUNITY” (Zoetis Services LLC, priority 2021, published 2025).

What was measured:
Assay type in all cases: cell-based
[1] = test system: bovine monocyte-derived macrophages; test: H3 histone modification quantification (ELISA); settings: vs vehicle
Source text: (§1) Peripheral blood mononuclear cells (PBMC) were isolated from bovine blood using ficoll gradients. Bovine monocytes were isolated from PBMC using magnetic assisted cell sorting to positively select for CD14+ cells using anti-human CD14 microbeads (Miltenyi Biotec). Purified bovine blood CD14+ monocytes were differentiated into macrophages using an M2-skewing differentiation factor (recombinant bovine M-CSF) over 7 days then exposed to CATH2 or a vehicle control in the presence of bovine casein to mimic aspects of the mammary gland for 24 hr. […] Following the rest period, a subset of vehicle- and CATH2-trained monocyte-derived macrophages were assessed for epigenetic and transcriptomic changes. The remaining cells were challenged with LPS or E. coli bioparticle labeled with pH-sensitive pHrodo green dye and key parameters for macrophage activation/immune response were assessed including glycolytic activity, surface marker expression, gene expression, cytokine production, phagocytosis, reactive nitrogen species production, and miRNA profiling.
Histones were isolated from bovine monocyte-derived macrophages using commercially available histone extraction kits (Epigentek) according to the manufacturer's instructions and stored at −80° C. until histone quantification assays could be performed. […]

[2] = test system: bovine monocyte-derived macrophages; test: mRNASeq transcriptome analysis; settings: for Number of significantly differentially expressed genes, P < 0.01 & |log2FC| > 1 / Number of significantly differentially expressed genes, P < 0.05 & |log2FC| > 1 / Number of significantly differentially expressed genes, Padj < 0.05 & |log2FC| > 0.585 / Number of significantly differentially expressed genes, Padj < 0.05 & |log2FC| > 1 / Number of significantly differentially expressed genes, Padj < 0.1 & |log2FC| > 1: CATH2_vs_vehicle
Source text: Peripheral blood mononuclear cells (PBMC) were isolated from bovine blood using ficoll gradients. Bovine monocytes were isolated from PBMC using magnetic assisted cell sorting to positively select for CD14+ cells using anti-human CD14 microbeads (Miltenyi Biotec). Purified bovine blood CD14+ monocytes were differentiated into macrophages using an M2-skewing differentiation factor (recombinant bovine M-CSF) over 7 days then exposed to CATH2 or a vehicle control in the presence of bovine casein to mimic aspects of the mammary gland for 24 hr. Following treatment, vehicle and drug were removed and cells were washed to eliminate residual drug and monocyte-derived macrophages were rested for 3 days in order to assess reprogramming. Following the rest period, a subset of vehicle- and CATH2-trained monocyte-derived macrophages were assessed for epigenetic and transcriptomic changes. The remaining cells were challenged with LPS or E. coli bioparticle labeled with pH-sensitive pHrodo green dye and key parameters for macrophage activation/immune response were assessed including glycolytic activity, surface marker expression, gene expression, cytokine production, phagocytosis, reactive nitrogen species production, and miRNA profiling.
Bovine monocyte-derived macrophages were lysed in Buffer RLT with addition of (3-mercaptoethanol (QIAGEN) and stored at −80° C. until miRNA/mRNA isolations could be performed. Total RNA including miRNA was isolated from cell lysates using the miRNeasy Tissues/Cells Advanced kit (QIAGEN) following the manufacturer's instructions. mRNA and miRNA libraries were prepared using the TruSeq Stranded mRNA Library Prep Kit (Illumina) and QIAseq miRNA Library Kit, respectively (QIAGEN) according to the manufacturer's instructions. Libraries were run on the Illumina NextSeq550 System. Sequencing data were analyzed using CLC Genomics Workbench software and QIAGEN Ingenuity Pathway Analysis (IPA).

[3] = test system: bovine monocyte-derived macrophages; test: Phagocytosis of pHrodo green-labeled E. coli bioparticle (IncuCyte); settings: <4 hr from challenge with E. coli bioparticles (10 μg/mL); after CATH2 24 hr and 3-day rest; vs vehicle
Source text: as §1, with “profiling. In brief, E. coli bioparticle labeled with pHrodo-green pH sensitive dye (Invitrogen) were added to monocyte-derived macrophages and phase and green fluorescence was captured over time using the S3 IncuCyte® Live-Cell Analysis System (Essen Bioscience) over a period of 24-hr. […]” for “profiling.”

[4] = 0 hrs_post_CATH2 (prior to CATH2 treatment)
[5] = 0 hrs_post_LPS (after CATH2 and 3-day rest)

## RFGRFLRKIRRFRPKVTITIQGSARFG [CATH2, cathelicidin 2 peptide]
[1]; after CATH2 exposure and rest period, pre-LPS
  H3 histone modifications (incl. H3K27ac, H3K4me1): increased levels of various H3 histone modifications
[1]; after CATH2 exposure, rest, LPS 1 μg/mL 24 hr
  H3 histone modifications following LPS challenge: some modifications are retained to a lesser extent
[2]; 8 hr following LPS stimulation, CATH2 vs vehicle
  CD14 and CD80 gene expression (RNA sequence data): significantly upregulated
[2]; [4]
  Number of significantly differentially expressed genes, P < 0.01 & |log2FC| > 1: 0
  Number of significantly differentially expressed genes, P < 0.05 & |log2FC| > 1: 0
  Number of significantly differentially expressed genes, Padj < 0.05 & |log2FC| > 0.585: 0
  Number of significantly differentially expressed genes, Padj < 0.05 & |log2FC| > 1: 0
  Number of significantly differentially expressed genes, Padj < 0.1 & |log2FC| > 1: 0
[2]; [5]
  Number of significantly differentially expressed genes, P < 0.01 & |log2FC| > 1: 169
  Number of significantly differentially expressed genes, P < 0.05 & |log2FC| > 1: 244
  Number of significantly differentially expressed genes, Padj < 0.05 & |log2FC| > 0.585: 171
  Number of significantly differentially expressed genes, Padj < 0.05 & |log2FC| > 1: 96
  Number of significantly differentially expressed genes, Padj < 0.1 & |log2FC| > 1: 134
[2]; 8 hrs_post_CATH2
  Number of significantly differentially expressed genes, P < 0.01 & |log2FC| > 1: 6
  Number of significantly differentially expressed genes, P < 0.05 & |log2FC| > 1: 27
  Number of significantly differentially expressed genes, Padj < 0.05 & |log2FC| > 0.585: 0
  Number of significantly differentially expressed genes, Padj < 0.05 & |log2FC| > 1: 0
  Number of significantly differentially expressed genes, Padj < 0.1 & |log2FC| > 1: 0
[2]; 8 hrs_post_LPS
  Number of significantly differentially expressed genes, P < 0.01 & |log2FC| > 1: 509
  Number of significantly differentially expressed genes, P < 0.05 & |log2FC| > 1: 593
  Number of significantly differentially expressed genes, Padj < 0.05 & |log2FC| > 0.585: 962
  Number of significantly differentially expressed genes, Padj < 0.05 & |log2FC| > 1: 479
  Number of significantly differentially expressed genes, Padj < 0.1 & |log2FC| > 1: 532
[2]; 24 hrs_post_CATH2
  Number of significantly differentially expressed genes, P < 0.01 & |log2FC| > 1: 11
  Number of significantly differentially expressed genes, P < 0.05 & |log2FC| > 1: 28
  Number of significantly differentially expressed genes, Padj < 0.05 & |log2FC| > 0.585: 0
  Number of significantly differentially expressed genes, Padj < 0.05 & |log2FC| > 1: 0
  Number of significantly differentially expressed genes, Padj < 0.1 & |log2FC| > 1: 0
[2]; 24 hrs_post_LPS
  Number of significantly differentially expressed genes, P < 0.01 & |log2FC| > 1: 328
  Number of significantly differentially expressed genes, P < 0.05 & |log2FC| > 1: 393
  Number of significantly differentially expressed genes, Padj < 0.05 & |log2FC| > 0.585: 520
  Number of significantly differentially expressed genes, Padj < 0.05 & |log2FC| > 1: 279
  Number of significantly differentially expressed genes, Padj < 0.1 & |log2FC| > 1: 330
[2]; CATH2 vs vehicle
  DEG related to Rho family signaling: downregulated
  Type I interferon induced genes (e.g. ISG15, MX2, OAS2): significantly upregulated
[2]; pre- and post-LPS after CATH2 treatment and 3-day rest, vs vehicle
  Immune response gene expression (IL1A/B, IL6, IL8, IL12, IL23, CCL2, NOS2, IL10): significantly upregulated
[3]
  Phagocytosis of E. coli bioparticles: enhanced phagocytosis of E. coli bioparticles
